According to paper PMC8591608, “DNDI-6148: A Novel Benzoxaborole Preclinical Candidate for the Treatment of Visceral Leishmaniasis” (Journal of Medicinal Chemistry, 2021):
In brackets after ≈: the same amount, converted by molar mass. Where two headings read alike, the source gives them in different places.

Assays:
L. infantum = L. infantum mouse model of VL; format: in vivo
[1] = test system: panel of 88 targets (Cerep panel); test: Off-target panel (Eurofins Cerep panel); details: at a concentration of 10 μM
[2] = Plasma-protein binding, dog; format: in vitro ADME; details: Beagle, pH 7.4
Experimental: (§1) Tests were conducted by WuXi AppTec, Co., China, using the equilibrium dialysis method and a 96-well plate format. The test compound (at 2 μM, in triplicate) in solution in plasma (Balb/c mouse, golden (Syrian) hamster, Sprague-Dawley rat, Beagle dog or human) was dialyzed against 100 mM phosphate-buffered saline (pH 7.4) on a rotating plate incubated for 6 h at 37 °C. Following the precipitation of protein with acetonitrile or acetonitrile/methanol containing both 1% phosphoric acid, the amount of compound present in each compartment was quantified by LC-MS/MS.

[3] = Plasma-protein binding, rat; format: in vitro ADME; details: Sprague-Dawley, pH 7.4
Experimental: as §1

[4] = Plasma-protein binding, hamster; format: in vitro ADME; details: golden (Syrian), pH 7.4
Experimental: as §1

Thermodynamic solubility = format: physicochemical
Experimental: The thermodynamic solubility was measured by WuXi AppTec, China. Aliquots of the compound DMSO stock (10 mM) were transferred to fasted state simulated intestinal fluid (FaSSIF) buffer (pH 6.5) or fed state simulated intestinal fluid (FeSSIF) buffer (pH 5.0), and the mixtures were shaken for 24 h at room temperature. Following sampling by a Whatman filter device, the compound concentrations were determined by UV spectroscopy.

[5] = Liver microsome stability, rat; format: in vitro ADME; details: Sprague-Dawley, rat liver microsomes, pH 7.4
Experimental: Tests were performed by WuXi AppTec, China. Test compounds (at 1 μM) or positive controls (testosterone, propafenone, and diclofenac) were incubated at 37 °C with liver microsomes from Balb/c mouse, golden (Syrian) hamster, Sprague-Dawley rat, Beagle dog, or human in the presence of a NADPH regenerating system and phosphate buffer (100 mM, pH 7.4) at 0.4 or 0.8 mg/mL microsomal protein. The samples were removed at time intervals from 0 to 60, 90, or 120 min and immediately mixed with cold methanol supplemented or not with acid (3% formic acid) and centrifuged prior to analysis by LC-MS/MS using tolbutamide or propranolol as internal standards.

[6] = In vivo pharmacokinetics in rat; parameters: species or system male Sprague-Dawley rats; details: for MRT inf: read-out: MRT0-inf; for MRT last: read-out: MRT0-last
Experimental: DNDI-6148 was formulated in 2% ethanol, 1 mol equiv NaOH, dextrose (5% solution), and administrated to male Sprague-Dawley rats, either i.v. after filtration and pH adjustment (at 2 mg/kg), or p.o. as a homogenous suspension (at 10 mg/kg). The K2-EDTA anticoagulant was added to blood samples collected at predose, 0.083 (i.v. only), 0.25, 0.5, 1, 2 (p.o. only), 4, 8, and 24 h, and were processed to plasma and stabilized with phosphoric acid (1% final) before analysis by LC-MS/MS. PK parameters were calculated using WinNonlin software (version 6.21 and 6.3).

[7] = Human PK and dose prediction by allometric scaling
[8] = test system: wild-type T. brucei trypanosomes; test: Drug sensitivity, wild-type T. brucei; format: cell-based; details: Trypanosoma brucei
Experimental: (§2) The clonal L. donovani cell line LdBOB (derived from MHOM/SD/62/1S-CL2D) was grown as promastigotes at 28 °C, as described previously. Bloodstream form T. brucei MiTat 1.2 clone 221a and its derived subline, 2T1, were cultured at 37 °C in the presence of 5% CO2 in HMI9-T medium, as described previously. T. brucei cell lines overexpressing CPSF3 and overexpressing a mutated version of CPSF3 (Asn232His) were generated as part of a previous study and cultured as described.[19]
(§3) Drug sensitivity assays with wild-type and transgenic T. brucei and L. donovani cell lines were carried out as previously described.[31],[32]

[9] = test system: T. brucei trypanosomes maintaining a mutated version of CPSF3 (Asn232His); test: Drug sensitivity, T. brucei with mutated CPSF3; format: cell-based
Experimental: as §2, §3

[10] = test system: trypanosomes overexpressing the wild-type version of CPSF3; test: Drug sensitivity, T. brucei overexpressing CPSF3; format: cell-based
Experimental: as §2, §3

in vivo = details: both, Sprague-Dawley, rat
[11] = male, Sprague-Dawley, plasma, iv, rat, i.v. 2 mg/kg
[12] = male, Sprague-Dawley, rat, plasma, IV 2.32 mg/kg, mean of R1-R3
[13] = male, Sprague-Dawley, rat, plasma, PO 10.4 mg/kg, mean of R4-R6
[14] = allometric scaling from rat and dog PK data

For `Cc1c(C(=O)Nc2ccc3c(c2)B(O)OC3)nnn1-c1ccccn1` [Compound 23, N-(1-Hydroxy-1,3-dihydrobenzo[c][1,2]oxaborol-6-yl)-5-methyl-1-(pyridin-2-yl)-1H-1,2,3-triazole-4-carboxamide], the “reduction in liver parasite burden following 5 days of p.o. dosing BID, L. infantum” value (L. infantum; 25 mg/kg BID) was 96.1%, the “reduction in liver parasite burden following 5 days of p.o. dosing BID, L. infantum” value (L. infantum; 50 mg/kg BID) was 98.6% and the “activity in panel of 88 targets” value [1] was no more than 50%. For the same molecule, the fraction unbound at 6 h, 2 µM [2] was 0.13, the fraction unbound at 6 h, 2 µM [3] was 0.08 and the fraction unbound at 6 h, 2 µM [4] was 0.12. It also gave a solubility at 24 h (Thermodynamic solubility; FaSSIF buffer pH 6.5, read-out: FaSSIF solubility) of 5.4 µg/mL (≈ 16.1 µM), a solubility at 24 h (Thermodynamic solubility; FeSSIF buffer pH 5.0, read-out: FeSSIF solubility) of 6.3 µg/mL (≈ 18.8 µM) and a microsomal CLint at 1 μM [5] of less than 11.9 µL/min/mg. The Plasma concentration ([6]; IV 2.32 mg/kg, plasma, 5 min, mean of R1-R3) was 4727, the Plasma concentration ([6]; IV 2.32 mg/kg, plasma, 0.25 h, mean of R1-R3) was 4093 and the Plasma concentration ([6]; IV 2.32 mg/kg, plasma, 0.50 h, mean of R1-R3) was 3627. For the same molecule, the Plasma concentration ([6]; IV 2.32 mg/kg, plasma, 1.00 h, mean of R1-R3) was 2767, the Plasma concentration ([6]; IV 2.32 mg/kg, plasma, 4.00 h, mean of R1-R3) was 537 and the Plasma concentration ([6]; IV 2.32 mg/kg, plasma, 8.00 h, mean of R1-R3) was 84.9. It also gave a Plasma concentration ([6]; IV 2.32 mg/kg, plasma, 24.0 h, mean of R1-R3) of 5.67, an AUC0-inf/AUC0-last ([6]; IV 2.32 mg/kg, mean of R1-R3) of 100% and a Tlast ([6]; IV 2.32 mg/kg, mean of R1-R3) of 24.0 h. The Plasma concentration ([6]; PO 10.4 mg/kg, plasma, 0.25 h, mean of R4-R6) was 4287, the Plasma concentration ([6]; PO 10.4 mg/kg, plasma, 0.50 h, mean of R4-R6) was 3993 and the Plasma concentration ([6]; PO 10.4 mg/kg, plasma, 1.00 h, mean of R4-R6) was 5153. The Plasma concentration ([6]; PO 10.4 mg/kg, plasma, 2.00 h, mean of R4-R6) was 6900, the Plasma concentration ([6]; PO 10.4 mg/kg, plasma, 4.00 h, mean of R4-R6) was 5773 and the Plasma concentration ([6]; PO 10.4 mg/kg, plasma, 8.00 h, mean of R4-R6) was 1249. It also gave a Plasma concentration ([6]; PO 10.4 mg/kg, plasma, 24.0 h, mean of R4-R6) of 13.8, an AUC0-inf/AUC0-last ([6]; PO 10.4 mg/kg, mean of R4-R6) of 100% and a Tlast ([6]; PO 10.4 mg/kg, mean of R4-R6) of 24.0 h. It also gave a Vd at 24 h [6, 11] of 0.6 L/kg, a half-life at 24 h [6, 11] of 2.8 h and a clearance ([6]; male, Sprague-Dawley, plasma, iv, rat, i.v. 2 mg/kg, read-out: clearance) of 4.5 mL/min/kg. For the same molecule, the bioavailability ([6]; male, Sprague-Dawley, plasma, po, rat, p.o. 10 mg/kg, read-out: F) was 94%, the AUC(0-inf) [6, 12] was 9160 ng·h/mL and the AUC(0-t) [6, 12] was 9140 ng·h/mL. It also gave a C0 [6, 12] of 5100 ng/mL, a half-life [6, 12] of 2.75 h and a clearance ([6]; male, Sprague-Dawley, rat, plasma, IV 2.32 mg/kg, mean of R1-R3, read-out: Cl) of 4.5 mL/min/kg. For the same molecule, the MRT inf [6, 12] was 2.29 h, the MRT last [6, 12] was 2.21 h and the Vd ([6]; male, Sprague-Dawley, rat, plasma, IV 2.32 mg/kg, mean of R1-R3, read-out: Vdss) was 0.603 L/kg. For the same molecule, the bioavailability ([6]; male, Sprague-Dawley, rat, plasma, PO 10.4 mg/kg vs IV 2.32 mg/kg, mean, read-out: Bioavailability) was 94%, the AUC(0-inf) [6, 13] was 38600 ng·h/mL and the AUC(0-t) [6, 13] was 38500 ng·h/mL. For the same molecule, the Cmax [6, 13] was 7330 ng/mL, the Tmax [6, 13] was 2.67 h and the half-life [6, 13] was 2.34 h. For the same molecule, the MRT inf [6, 13] was 4.18 h, the MRT last [6, 13] was 4.15 h and the “predicted efficacious human dose” value ([7]; BID dosing in humans) was 3 to 20 mg/kg. For the same molecule, the “predicted bioavailability in humans” value [7, 14] was 40–90%, the “predicted clearance in humans” value [7, 14] was 1 to 4 mL/min/kg and the EC50 ([8]; Figure 2A) was 47 ± 0.9 nM. The EC50 ([8]; Figure 2B) was 67 ± 1 nM, the EC50 ([9]; Trypanosoma brucei) was 90 ± 3.4 nM and the “fold less sensitive compared to wild-type” value ([9]; bloodstream trypanosomes, CPSF3 Asn232His) was 1.8 fold. For the same molecule, the EC50 ([10]; Trypanosoma brucei) was 172 ± 3 nM and the “fold less sensitive compared to wild-type” value ([10]; trypanosomes overexpressing wild-type CPSF3) was 2.9 fold.

`Cc1c(-c2ccccn2)coc1C(=O)Nc1ccc2c(c1)B(O)OC2` [Compound 28, N-(1-Hydroxy-1,3-dihydrobenzo[c][1,2]oxaborol-6-yl)-3-methyl-4-(pyridin-2-yl)furan-2-carboxamide] gave an NOAEL at 14 days (in vivo) of less than 12.5 mg/kg.
